From patent US9884832B2 (priority 2011, dated 2018) come the findings set out here.

The first assay deals with AM2 V27A (valine→alanine mutation at residue 27 in the M2 protein) (Influenza A virus, UniProt P0DOF5, V27A). It is filed as cell-based, influenza virus A/Udorn/72.
Settings: not given
Consider `c1csc(-c2ncc(CNC34CC5CC(CC(C5)C3)C4)s2)c1` [Example 144a, N-((2-(thiophen-2-yl)thiazol-5-yl)methyl)adamantan-1-amine], for which the “V27A OOcyte Inhibition at 100 uM (%)” value is “B (key: (A)=31-95%; (B)=0-30%)”.

Still in this assay, the particulars now being: pH 5.5.
On to `Clc1c(CNC23CC4CC(CC(C4)C2)C3)nc2sccn12` [Example 87, Adamantan-1-yl-(5-chloro-imidazo[2,1-b]thiazol-6-ylmethyl)-amine], for which the “V27A OOcyte Inhibition at 100 uM (%)” value is listed as “B (key: (A)=31-95%; (B)=0-30%)”.

The next assay deals with AM2 S31N (serine→asparagine mutation at residue 31 in the M2 protein) (Influenza A virus, UniProt P0DOF5, S31N). It is filed as cell-based, influenza virus A/Udorn/72.
Settings: not given
Consider `c1csc(-c2ncc(CNC34CC5CC(CC(C5)C3)C4)s2)c1` [Example 144a, N-((2-(thiophen-2-yl)thiazol-5-yl)methyl)adamantan-1-amine], for which the “S31N OOcyte Inhibition at 100 uM (%)” value is “A (key: (A)=31-95%; (B)=0-30%)”. As to `Clc1ccc2[nH]c(CNC34CC5CC(CC(C5)C3)C4)nc2c1` [Example 181a, Adamantan-1-yl-(5-chloro-1H-benzoimidazol-2-ylmethyl)-amine], the “S31N OOcyte Inhibition at 100 uM (%)” value is “A (key: (A)=31-95%; (B)=0-30%)”. With `CC(C)(C)c1ccc(-c2noc(CNC34CC5CC(CC(C5)C3)C4)n2)cc1` [Example 124a, N-((3-(4-(tert-butyl)phenyl)-1,2,4-oxadiazol-5-yl)methyl)adamantan-1-amine], the “S31N OOcyte Inhibition at 100 uM (%)” value is “B (key: (A)=31-95%; (B)=0-30%)”. Consider `c1csc(-c2nc(CNC34CC5CC(CC(C5)C3)C4)no2)c1` [Example 146a, N-((5-(thiophen-2-yl)-1,2,4-oxadiazol-3-yl)methyl)adamantan-1-amine], for which the “S31N OOcyte Inhibition at 100 uM (%)” value is listed as “A (key: (A)=31-95%; (B)=0-30%)”. On to `c1cn(-c2ccc(CNC34CC5CC(CC(C5)C3)C4)s2)cn1` [Example 161a, N-((5-(1H-imidazol-1-yl)thiophen-2-yl)methyl)adamantan-1-amine], for which the “S31N OOcyte Inhibition at 100 uM (%)” value was “B (key: (A)=31-95%; (B)=0-30%)”. Consider `c1cc(-c2ccc(CNC34CC5CC(CC(C5)C3)C4)cn2)cs1` [Example 59a, N-((6-(thiophen-3-yl)pyridin-3-yl)methyl)adamantan-1-amine], for which the “S31N OOcyte Inhibition at 100 uM (%)” value was “A (key: (A)=31-95%; (B)=0-30%)”. On the same count and under the same terms, under `COc1ccc(-c2nc(CNC34CC5CC(CC(C5)C3)C4)no2)cc1` [Example 126a, N-((5-(4-methoxyphenyl)-1,2,4-oxadiazol-3-yl)methyl)adamantan-1-amine] stands “A (key: (A)=31-95%; (B)=0-30%)”.

The same assay, now with this note: pH 5.5.
With `Clc1c(CNC23CC4CC(CC(C4)C2)C3)nc2sccn12` [Example 87, Adamantan-1-yl-(5-chloro-imidazo[2,1-b]thiazol-6-ylmethyl)-amine], the “S31N OOcyte Inhibition at 100 uM (%)” value is given as “B (key: (A)=31-95%; (B)=0-30%)”.

With `Cc1csc(-c2ccc(CNC34CC5CC(CC(C5)C3)C4)cc2)c1` [Example 5b, N-(4-(4-Methylthiophen-2-yl)benzyl)adamantan-1-amine], the “S31N OOcyte Inhibition at 100 uM (%)” value is reported as “A (key: (A)=31-95%; (B)=0-30%)”. Take `COc1ccccc1-c1nc(CNC23CC4CC(CC(C4)C2)C3)no1` [Example 15b, N-((5-(2-methoxyphenyl)-1,2,4-oxadiazol-3-yl)methyl)adamantan-1-amine]: the “S31N OOcyte Inhibition at 100 uM (%)” value is reported as “A (key: (A)=31-95%; (B)=0-30%)”. On the same count and under the same terms, under `FC(F)(F)c1nnc(CNC23CC4CC(CC(C4)C2)C3)o1` [Example 14b, N-((5-(trifluoromethyl)-1,3,4-oxadiazol-2-yl)methyl)adamantan-1-amine] stands “A (key: (A)=31-95%; (B)=0-30%)”; under `Fc1cc(F)cc(-c2cc(CNC34CC5CC(CC(C5)C3)C4)no2)c1` [Example 33b, N-((5-(3,5-difluorophenyl)isoxazol-3-yl)methyl)adamantan-1-amine], “A (key: (A)=31-95%; (B)=0-30%)”; under `CC(C)c1cc(CNC23CC4CC(CC(O)(C4)C2)C3)no1` [Example 85b, (1s,3r,5R,7S)-3-(((5-isopropylisoxazol-3-yl)methyl)amino)adamantan-1-61], “A (key: (A)=31-95%; (B)=0-30%)”. For `COc1ccc2nc(CNC34CC5CC(CC(C5)C3)C4)[nH]c2c1` [Example 79b, Adamantan-1-yl-(6-methoxy-1H-benzoimidazol-2-ylmethyl)-amine], the “S31N OOcyte Inhibition at 100 uM (%)” value is given as “A (key: (A)=31-95%; (B)=0-30%)”. On to `C1COC(c2nc(CNC34CC5CC(CC(C5)C3)C4)no2)C1` (centres unmarked) [Example 21b, N-((5-(tetrahydrofuran-2-yl)-1,2,4-oxadiazol-3-yl)methyl)adamantan-1-amine], for which the “S31N OOcyte Inhibition at 100 uM (%)” value is given as “A (key: (A)=31-95%; (B)=0-30%)”.
